Measured values as given in article PMC3794971, “Functional and Genetic Characterization of Neuropeptide Y-Like Receptors in Aedes aegypti” (PLoS Neglected Tropical Diseases, 2013).
Square brackets hold non-standard residues; d marks the D form. Peptide text beside a SMILES is read from it. Hyp = O=C(O)[C@@H]1C[C@@H](O)CN1; pGlu = O=C1CC[C@@H](C(=O)O)N1

Legend:
Ae. aegypti NPYLR1 = target: T1, Ae. aegypti NPYLR1 (Aedes aegypti, UniProt U5N0U1); assay: HEK293T cell-based calcium imaging assay, Ae. aegypti NPYLR1; conditions: for EC50: HEK293T cells transiently co-transfected with receptor and murine Gqα15, Fura-2 calcium imaging, eight responding cells per plate, three independent transfections, normalized to highest response
T1 sequence (U5N0U1 1-529): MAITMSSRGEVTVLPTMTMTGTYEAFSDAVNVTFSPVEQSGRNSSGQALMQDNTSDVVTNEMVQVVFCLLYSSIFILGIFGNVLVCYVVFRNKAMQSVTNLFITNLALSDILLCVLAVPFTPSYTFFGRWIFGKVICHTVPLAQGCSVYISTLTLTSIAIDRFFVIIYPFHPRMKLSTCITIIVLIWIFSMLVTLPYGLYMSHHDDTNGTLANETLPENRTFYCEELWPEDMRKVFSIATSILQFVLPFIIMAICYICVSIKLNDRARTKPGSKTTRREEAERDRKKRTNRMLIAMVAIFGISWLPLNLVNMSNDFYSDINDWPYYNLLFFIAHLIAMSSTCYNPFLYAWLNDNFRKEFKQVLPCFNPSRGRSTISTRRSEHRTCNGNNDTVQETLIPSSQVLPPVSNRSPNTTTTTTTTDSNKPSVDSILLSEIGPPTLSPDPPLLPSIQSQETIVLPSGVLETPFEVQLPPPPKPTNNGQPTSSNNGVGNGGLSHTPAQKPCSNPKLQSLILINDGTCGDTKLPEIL
Method: The variant alleles of NPYLR1 (alleles A–D) and NPYLR7 (alleles A–B) were tested in the cell-based assay as follows: NPYLR1A, NPYLR7A, and NPYLR7B were tested against the entire panel of peptides. NPYLR1B, NPYLR1C, and NPYLR1D were tested against Head Peptide-I and sNPF-3 only.

A.gam-sNPFR = target: T2, A.gam-sNPFR (Anopheles gambiae, UniProt A0SIF2); conditions: earlier reports, not this paper's assay; cited from earlier work
T2 sequence (A0SIF2 1-575): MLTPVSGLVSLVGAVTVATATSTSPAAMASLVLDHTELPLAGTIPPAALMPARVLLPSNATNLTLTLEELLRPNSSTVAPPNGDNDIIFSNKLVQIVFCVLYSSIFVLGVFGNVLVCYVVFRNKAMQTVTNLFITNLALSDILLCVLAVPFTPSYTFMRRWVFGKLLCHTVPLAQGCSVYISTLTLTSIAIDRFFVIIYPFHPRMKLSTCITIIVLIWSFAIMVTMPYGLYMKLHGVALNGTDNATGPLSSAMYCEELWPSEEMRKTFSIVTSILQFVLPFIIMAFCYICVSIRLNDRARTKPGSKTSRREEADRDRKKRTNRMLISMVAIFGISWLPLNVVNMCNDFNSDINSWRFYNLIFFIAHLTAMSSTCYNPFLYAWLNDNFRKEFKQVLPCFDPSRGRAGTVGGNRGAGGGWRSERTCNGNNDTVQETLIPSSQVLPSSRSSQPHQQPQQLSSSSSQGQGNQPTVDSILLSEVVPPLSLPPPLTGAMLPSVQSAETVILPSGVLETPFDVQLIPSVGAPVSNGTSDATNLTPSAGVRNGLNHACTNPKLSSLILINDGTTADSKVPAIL
From the text: (§1) Ae. aegypti NPYLR1 is homologous to the sNPF receptors (sNPFR) of D. melanogaster, [24] and An. gambiae. […] We have no explanation for these discrepancies, but note that since D ...

D.mel-sNPFR [1] = target: T3, D.mel-sNPFR (Drosophila melanogaster, UniProt Q9VW75); conditions: earlier reports, not this paper's assay; cited from earlier work
T3 sequence (Q9VW75 1-600): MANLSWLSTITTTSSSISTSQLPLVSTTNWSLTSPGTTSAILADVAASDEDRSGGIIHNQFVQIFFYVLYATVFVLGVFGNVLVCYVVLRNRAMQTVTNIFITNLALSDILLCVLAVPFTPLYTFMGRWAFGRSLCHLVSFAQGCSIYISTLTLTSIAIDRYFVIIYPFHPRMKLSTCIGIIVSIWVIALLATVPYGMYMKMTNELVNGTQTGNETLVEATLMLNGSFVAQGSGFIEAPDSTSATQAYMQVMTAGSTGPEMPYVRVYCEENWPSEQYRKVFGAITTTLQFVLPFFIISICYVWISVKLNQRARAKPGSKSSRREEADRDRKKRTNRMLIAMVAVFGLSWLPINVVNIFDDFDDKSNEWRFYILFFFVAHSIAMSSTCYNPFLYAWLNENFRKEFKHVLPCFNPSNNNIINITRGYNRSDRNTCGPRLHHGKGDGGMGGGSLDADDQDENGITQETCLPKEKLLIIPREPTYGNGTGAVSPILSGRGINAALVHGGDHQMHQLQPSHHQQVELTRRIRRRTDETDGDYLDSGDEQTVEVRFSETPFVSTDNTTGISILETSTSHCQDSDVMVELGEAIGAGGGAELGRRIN
From the text: as §1

[2] = test system: Ae. aegypti female mosquitoes; conditions: earlier report; cited from earlier work
Method: At least two mechanisms for host-seeking inhibition have been proposed. First, abdominal distension triggered by blood ingestion is communicated through the ventral nerve cord to inhibit host attraction for approximately 24 hours [7](Figure 1B). Second, a humoral substance discovered in hemolymph at 48 hours after a blood meal is capable of suppressing host-seeking behavior when injected into non-blood-fed females [4](Figure 1B).

D.mel-sNPFR [3] = target: T3, D.mel-sNPFR; assay: HEK293T cell-based calcium imaging assay, D.mel-sNPFR; conditions: HEK293T + murine Gqα15, Fura-2 calcium imaging
Method: (§2) HEK293T cells were cultured using standard protocols in a Thermo Scientific FORMA Series II – Water Jacketed CO2 incubator (Waltham, MA, USA). Lipofectamine 2000 (Invitrogen) was used for transient transfection of 1 µg pME18S>Candidate receptor and 1 µg pME18S>murine Gqα15 [14]. Transfected cells were loaded with the calcium sensitive dye Fura-2 (Invitrogen) according to product instructions. Cells were imaged on a Nikon Eclipse TE-2000-U microscope (Melville, NY, USA) using fluorescent excitation from a Lambda DG-4 (Sutter Instruments Co., Novato, CA, USA). Bath application of ∼300 µl solutions containing peptides diluted in Ringer's solution (0.14 M NaCl, 5.6 mM KCl, 5 mM HEPES, 2 mM pyruvic acid, 2 mM CaCl2, 2 mM MgCl2, 0.15% Glucose, 1.25 mM KH2PO4, pH 7.4) were delivered using a diaphragm pump (Gilson Minipuls3, Middleton, WI, USA) with real-time recording and analysis in Metafluor software (Version 7.1.2.0; Molecular Devices, Sunnyvale, CA, USA). Data from a complete peptide dilution series were collected from eight responding cells within each plate of three independent transfections. Data were normalized by setting the highest fluorescent response within each experiment to 100%.
We also used human Neuropeptide Y (NPY) and Peptide YY (PYY) [23](Figure 2B). […]

[4] = test system: Ae. aegypti female mosquitoes; assay: Host-seeking behavior in uniport olfactometer after peptide injection; format: in vivo, Aedes aegypti; conditions: non-blood-fed females, 200 nl of 4 and 10 mM peptide injected into abdomen, tested after one hour; n = 6, ~20 females per trial
From the text: The uniport olfactometer was custom built by Vadim Sherman in the Rockefeller University High Energy Physics Instrument Shop. Approximately 15-25 female mosquitoes aged 5 to 14 days were placed within loaders, which are small plastic cylinders with mesh covering both openings and a sliding door on one end obtained from the World Health Organization Vector Control Research Unit ([…], Malaysia). […] were attached to one end of a 1 m long plastic tube ([…]) that led to an “attraction trap” (14 cm long, 5 cm diameter), followed by a sealed chamber into which a human volunteer inserted a hand or forearm (see image in Figure 1A for the configuration with a hand stimulus). Humidified room air was carbon-filtered (Donaldson Ultrac-A, Bloomington, MN), supplemented to a final concentration of 5% CO2 using flow-meters (Cole Parmer, catalogue #023-92-ST, Vernon Hills, IL), and passed over the hand or forearm of the volunteer into the olfactometer at 3.8 L/min. Mosquito loaders were attached to the olfactometer and given 5 minutes to acclimatize to air-flow prior to a 5 minute host-seeking test. Mosquitoes were scored as attracted if they flew upwind through the 1 m tube and into the “attraction trap” within the allotted time. Solutions of Head Peptide-I, sNPF-3 and Head Peptide-I [[…]] were dissolved in saline (0.1M NaCl, 4 mM KCl, 2 mM CaCl2) at a concentration of 4 and 10 mM for injection. ∼20 female mosquitoes aged 5 to 14 days were anesthetized on ice for 3 min, moved individually onto a chill-plate (BioQuip catalogue #1429, Rancho Dominguez, CA, USA), and injected with 200 nl of desired solution using a Drummond Nanoject II (Drummond catalogue # 3-000-204, Broomall, PA, USA) attached to 3.5'' needles (Drummond, catalogue #3-000-203-G/X) shaped on a needle puller (Sutter Instruments Co., Model P-97). Solutions were injected into the abdomen by piercing the second abdominal […] from the ovipositor. Injected mosquitoes were placed in loaders and allowed one hour to recover from injection before being tested for host-seeking behavior in the uniport olfactometer.

Ae. aegypti NPYLR7 = assay: HEK293T cell-based calcium imaging assay, Ae. aegypti NPYLR7; design: species or system Aedes aegypti; conditions: HEK293T + murine Gqα15, Fura-2 calcium imaging; NPYLR7B allele responded, NPYLR7A did not
Method: as §2
NPYLR1B, NPYLR1C, and NPYLR1D were tested against Head Peptide-I and sNPF-3 only. […]

Row | Molecule | EC50 (Ae. aegypti NPYLR1) [nM] | Host-seeking behavior activity of injected peptide [2] | Host-seeking behavior (percent attraction to human host stimuli) after injection [4] | also measured
1 | CC(C)C[C@H](NC(=O)[C@H](CO)NC(=O)[C@@H]1CCCN1C(=O)[C@@H]1CCCN1C(=O)[C@H](CCCNC(=N)N)NC(=O)[C@@H]1CCC(=O)N1)C(=O)N[C@@H](CCCCN)C(=O)N[C@H](C(=O)N[C@@H](CCCNC(=N)N)C(=O)N[C@@H](Cc1ccccc1)C(N)=O)[C@@H](C)O [Head Peptide-III] ([pGlu]RPPSLKTRF-NH2) | 954 | behaviorally inactive |  | Sensitivity of An. gambiae sNPFR to Head Peptide-III (A.gam-sNPFR): lack sensitivity; Sensitivity of D. melanogaster sNPFR to Head Peptide-III (D.mel-sNPFR [1]): lack sensitivity
2 | CC(C)C[C@H](NC(=O)[C@H](CO)NC(=O)[C@@H]1C[C@@H](O)CN1C(=O)[C@@H]1CCCN1C(=O)[C@H](CCCNC(=N)N)NC(=O)[C@@H]1CCC(=O)N1)C(=O)N[C@@H](CCCCN)C(=O)N[C@H](C(=O)N[C@@H](CCCNC(=N)N)C(=O)N[C@@H](Cc1ccccc1)C(N)=O)[C@@H](C)O [Head Peptide-I] ([pGlu]RP[Hyp]SLKTRF-NH2) | 823 | sufficient to inhibit host-seeking behavior | inhibition of host-seeking behavior | EC50 (D.mel-sNPFR [3]): 1000 nM
3 | CC(C)C[C@H](NC(=O)[C@H](CCCNC(=N)N)NC(=O)[C@H](CC(C)C)NC(=O)[C@H](CO)NC(=O)[C@@H]1CCCN1C(=O)[C@@H](N)CO)C(=O)N[C@@H](CCCNC(=N)N)C(=O)N[C@@H](Cc1ccccc1)C(N)=O [sNPF-1(4-11)] (H-SPSLRLRF-NH2) | 44 |  |  | 
4 | CC(C)C[C@H](NC(=O)[C@H](CCCNC(=N)N)NC(=O)[C@H](CC(C)C)NC(=O)[C@H](CO)NC(=O)[C@@H]1CCCN1C(=O)[C@H](CO)NC(=O)[C@H](CCCNC(=N)N)NC(=O)[C@@H](NC(=O)[C@H](C)NC(=O)[C@@H](N)CCCCN)C(C)C)C(=O)N[C@@H](CCCNC(=N)N)C(=O)N[C@@H](Cc1ccccc1)C(N)=O [sNPF-1] (H-KAVRSPSLRLRF-NH2; N-terminus assumed) | 55 |  |  | EC50 (Ae. aegypti NPYLR7): 634 nM
5 | CC(C)C[C@H](NC(=O)[C@H](CCCNC(=N)N)NC(=O)[C@H](CC(C)C)NC(=O)[C@H](CCC(N)=O)NC(=O)[C@@H]1CCCN1C(=O)[C@H](C)N)C(=O)N[C@@H](CCCNC(=N)N)C(=O)N[C@@H](Cc1ccccc1)C(N)=O [sNPF-2+4] (H-APQLRLRF-NH2) | 35 |  |  | 
6 | CC(C)C[C@H](NC(=O)[C@H](CCCNC(=N)N)NC(=O)[C@H](CCC(N)=O)NC(=O)[C@H](CO)NC(=O)[C@@H]1CCCN1C(=O)[C@H](C)N)C(=O)N[C@@H](CCCNC(=N)N)C(=O)N[C@@H](Cc1c[nH]c2ccccc12)C(N)=O [sNPF-3] (H-APSQRLRW-NH2; N-terminus assumed) | 75 |  | inhibited host-seeking behavior | Sensitivity of NPYLR1 to sNPF-3 relative to Head Peptide-I (Ae. aegypti NPYLR1; cell-based assay): ten times more sensitive; EC50 (Ae. aegypti NPYLR7): 6000 nM
7 | pERPhPSLKTRC [Head Peptide-I [Cys10]] |  | inactive | had no effect | Calcium response of NPYLR1 (Ae. aegypti NPYLR1; concentrations up to 50 µM, HEK293T + murine Gqα15, Fura-2): no response
